Source: ChEMBL document CHEMBL3400015, “Tertiary amides of Salinomycin: A new group of antibacterial agents against Bacillus anthracis and methicillin-resistant Staphylococcus epidermidis” (Bioorg Med Chem Lett, 2015)

Legend:
Type in all cases: functional
[1] = system: Staphylococcus aureus; experiment: Antimicrobial activity against Staphylococcus aureus […] after 18 hrs by twofold serial broth dilution method
[2] = system: Staphylococcus epidermidis; experiment: Bactericidal activity against methicillin-resistant Staphylococcus epidermidis isolate 424/10 after 24 hrs; conditions: isolate 424/10, 24 h, read-out: MBC99.9
[3] = system: Staphylococcus aureus; experiment: Bactericidal activity against Staphylococcus aureus […] after 24 hrs; conditions: read-out: MBC99.9
[4] = system: Staphylococcus epidermidis; experiment: Bactericidal activity against methicillin-resistant Staphylococcus epidermidis isolate 458/11 after 24 hrs; conditions: isolate 458/11, 24 h, read-out: MBC99.9
[5] = system: Pseudomonas aeruginosa; experiment: Antimicrobial activity against Pseudomonas aeruginosa NCTC 6749 after 18 hrs by twofold serial broth dilution method; conditions: NCTC 6749, 18 h
[6] = system: Staphylococcus epidermidis; experiment: Antimicrobial activity against methicillin-resistant Staphylococcus epidermidis isolate 407/10 after 18 hrs by twofold serial broth dilution method; conditions: isolate 407/10, 18 h
[7] = system: Staphylococcus epidermidis; experiment: Bactericidal activity against Staphylococcus epidermidis ATCC 12228 after 24 hrs; conditions: ATCC 12228, 24 h, read-out: MBC99.9
[8] = system: Staphylococcus epidermidis; experiment: Bactericidal activity against methicillin-resistant Staphylococcus epidermidis isolate 454/11 after 24 hrs; conditions: isolate 454/11, 24 h, read-out: MBC99.9
[9] = system: Staphylococcus aureus; experiment: Antimicrobial activity against Staphylococcus aureus ATCC 6538 after 18 hrs by twofold serial broth dilution method; conditions: ATCC 6538, 18 h
[10] = system: Pseudomonas aeruginosa; experiment: Bactericidal activity against Pseudomonas aeruginosa ATCC 27853 after 24 hrs; conditions: ATCC 27853, 24 h, read-out: MBC99.9
[11] = system: Staphylococcus epidermidis; experiment: Antimicrobial activity against methicillin-resistant Staphylococcus epidermidis isolate 424/10 after 18 hrs by twofold serial broth dilution method; conditions: isolate 424/10, 18 h
[12] = system: Staphylococcus epidermidis; experiment: Bactericidal activity against methicillin-resistant Staphylococcus epidermidis isolate 470/11 after 24 hrs; conditions: isolate 470/11, 24 h, read-out: MBC99.9
[13] = system: Staphylococcus epidermidis; experiment: Antimicrobial activity against methicillin-resistant Staphylococcus epidermidis isolate 405/10 after 18 hrs by twofold serial broth dilution method; conditions: isolate 405/10, 18 h
[14] = system: Escherichia coli; experiment: Bactericidal activity against Escherichia coli NCTC 8196 after 24 hrs; conditions: NCTC 8196, 24 h, read-out: MBC99.9
[15] = system: Staphylococcus epidermidis; experiment: Antimicrobial activity against methicillin-resistant Staphylococcus epidermidis isolate 458/11 after 18 hrs by twofold serial broth dilution method; conditions: isolate 458/11, 18 h
[16] = system: Staphylococcus epidermidis; experiment: Antimicrobial activity against methicillin-resistant Staphylococcus epidermidis isolate 409/10 after 18 hrs by twofold serial broth dilution method; conditions: isolate 409/10, 18 h
[17] = system: Pseudomonas aeruginosa; experiment: Bactericidal activity against Pseudomonas aeruginosa NCTC 6749 after 24 hrs; conditions: NCTC 6749, 24 h, read-out: MBC99.9
[18] = system: Pseudomonas aeruginosa; experiment: Antimicrobial activity against Pseudomonas aeruginosa ATCC 15442 after 18 hrs by twofold serial broth dilution method; conditions: ATCC 15442, 18 h
[19] = system: Staphylococcus epidermidis; experiment: Antimicrobial activity against methicillin-resistant Staphylococcus epidermidis isolate 404/10 after 18 hrs by twofold serial broth dilution method; conditions: isolate 404/10, 18 h
[20] = system: Staphylococcus epidermidis; experiment: Antimicrobial activity against methicillin-resistant Staphylococcus epidermidis isolate 455/11 after 18 hrs by twofold serial broth dilution method; conditions: isolate 455/11, 18 h
[21] = system: Staphylococcus epidermidis; experiment: Antimicrobial activity against Staphylococcus epidermidis ATCC 12228 after 18 hrs by twofold serial broth dilution method; conditions: ATCC 12228, 18 h
[22] = system: Staphylococcus epidermidis; experiment: Antimicrobial activity against methicillin-resistant Staphylococcus epidermidis isolate 403/10 after 18 hrs by twofold serial broth dilution method; conditions: isolate 403/10, 18 h
[23] = system: Escherichia coli; experiment: Antimicrobial activity against Escherichia coli ATCC 25922 after 18 hrs by twofold serial broth dilution method; conditions: ATCC 25922, 18 h
[24] = system: Staphylococcus epidermidis; experiment: Bactericidal activity against methicillin-resistant Staphylococcus epidermidis isolate 403/10 after 24 hrs; conditions: isolate 403/10, 24 h, read-out: MBC99.9
[25] = system: Staphylococcus epidermidis; experiment: Bactericidal activity against methicillin-resistant Staphylococcus epidermidis isolate 404/10 after 24 hrs; conditions: isolate 404/10, 24 h, read-out: MBC99.9
[26] = system: Staphylococcus epidermidis; experiment: Bactericidal activity against methicillin-resistant Staphylococcus epidermidis isolate 459/11 after 24 hrs; conditions: isolate 459/11, 24 h, read-out: MBC99.9
[27] = system: Staphylococcus epidermidis; experiment: Bactericidal activity against methicillin-resistant Staphylococcus epidermidis isolate 460/11 after 24 hrs; conditions: isolate 460/11, 24 h, read-out: MBC99.9
[28] = system: Staphylococcus epidermidis; experiment: Antimicrobial activity against Staphylococcus epidermidis ATCC 35984 after 18 hrs by twofold serial broth dilution method; conditions: ATCC 35984, 18 h
[29] = system: Staphylococcus epidermidis; experiment: Bactericidal activity against methicillin-resistant Staphylococcus epidermidis isolate 455/11 after 24 hrs; conditions: isolate 455/11, 24 h, read-out: MBC99.9
[30] = system: Staphylococcus epidermidis; experiment: Antimicrobial activity against methicillin-resistant Staphylococcus epidermidis isolate 470/11 after 18 hrs by twofold serial broth dilution method; conditions: isolate 470/11, 18 h
[31] = system: Staphylococcus epidermidis; experiment: Antimicrobial activity against methicillin-resistant Staphylococcus epidermidis isolate 422/10 after 18 hrs by twofold serial broth dilution method; conditions: isolate 422/10, 18 h
[32] = system: Staphylococcus epidermidis; experiment: Antimicrobial activity against methicillin-resistant Staphylococcus epidermidis isolate 459/11 after 18 hrs by twofold serial broth dilution method; conditions: isolate 459/11, 18 h
[33] = system: Staphylococcus epidermidis; experiment: Antimicrobial activity against methicillin-resistant Staphylococcus epidermidis isolate 460/11 after 18 hrs by twofold serial broth dilution method; conditions: isolate 460/11, 18 h
[34] = system: Bacillus anthracis; experiment: Antimicrobial activity against Bacillus anthracis 34F2 after 18 hrs by twofold serial broth dilution method; conditions: 34F2, 18 h
[35] = system: Pseudomonas aeruginosa; experiment: Antimicrobial activity against Pseudomonas aeruginosa ATCC 27853 after 18 hrs by twofold serial broth dilution method; conditions: ATCC 27853, 18 h
[36] = system: Staphylococcus epidermidis; experiment: Bactericidal activity against methicillin-resistant Staphylococcus epidermidis isolate 407/10 after 24 hrs; conditions: isolate 407/10, 24 h, read-out: MBC99.9
[37] = system: Staphylococcus epidermidis; experiment: Antimicrobial activity against methicillin-resistant Staphylococcus epidermidis isolate 454/11 after 18 hrs by twofold serial broth dilution method; conditions: isolate 454/11, 18 h
[38] = system: Staphylococcus aureus; experiment: Bactericidal activity against Staphylococcus aureus ATCC 25923 after 24 hrs; conditions: ATCC 25923, 24 h, read-out: MBC99.9
[39] = system: Staphylococcus epidermidis; experiment: Antimicrobial activity against methicillin-resistant Staphylococcus epidermidis isolate 457/11 after 18 hrs by twofold serial broth dilution method; conditions: isolate 457/11, 18 h
[40] = system: Staphylococcus epidermidis; experiment: Antimicrobial activity against methicillin-resistant Staphylococcus epidermidis isolate 461/11 after 18 hrs by twofold serial broth dilution method; conditions: isolate 461/11, 18 h
[41] = system: Escherichia coli; experiment: Antimicrobial activity against Escherichia coli NCTC 8196 after 18 hrs by twofold serial broth dilution method; conditions: NCTC 8196, 18 h
[42] = system: Staphylococcus epidermidis; experiment: Bactericidal activity against Staphylococcus epidermidis ATCC 35984 after 24 hrs; conditions: ATCC 35984, 24 h, read-out: MBC99.9

CCCCCCCCN(CCCCCCCC)C(=O)[C@H](CC)[C@H]1CC[C@H](C)[C@H]([C@@H](C)[C@H](O)[C@H](C)C(=O)[C@H](CC)[C@H]2O[C@]3(C=C[C@@H](O)[C@]4(CC[C@@](C)([C@H]5CC[C@](O)(CC)[C@H](C)O5)O4)O3)[C@H](C)C[C@@H]2C)O1
128 µg/mL: MIC [9] | MIC [21] | MIC [28]
64 µg/mL: MIC [34]
256 µg/mL: MIC [1] | MIC [6] | MIC [15] | MIC [19] | MIC [22] | MIC [30] | MIC [31] | MIC [32] | MIC [33] | MIC [39]
> 256 µg/mL: MBC [2] | MBC [3] | MBC [4] | MIC [5] | MBC [7] | MBC [8] | MBC [10] | MIC [11] | MBC [12] | MIC [13] | MBC [14] | MIC [16] | MBC [17] | MIC [18] | MIC [20] | MIC [23] | MBC [24] | MBC [25] | MBC [26] | MBC [27] | MBC [29] | MIC [35] | MBC [36] | MIC [37] | MBC [38] | MIC [40] | MIC [41] | MBC [42]

CC[C@@H](C(=O)[C@@H](C)[C@@H](O)[C@H](C)[C@@H]1O[C@@H]([C@@H](CC)C(=O)N2CCOCC2)CC[C@@H]1C)[C@H]1O[C@]2(C=C[C@@H](O)[C@]3(CC[C@@](C)([C@H]4CC[C@](O)(CC)[C@H](C)O4)O3)O2)[C@H](C)C[C@@H]1C
256 µg/mL: MIC [1] | MIC [11] | MIC [13] | MIC [15] | MIC [16] | MIC [18] | MIC [19] | MIC [20] | MIC [22] | MIC [23] | MIC [30] | MIC [31] | MIC [33] | MIC [35] | MIC [39] | MIC [41]
128 µg/mL: MIC [5] | MIC [9] | MIC [21] | MIC [28] | MIC [32] | MIC [34] | MIC [37]
> 256 µg/mL: MBC [2] | MBC [3] | MBC [4] | MIC [6] | MBC [7] | MBC [8] | MBC [10] | MBC [12] | MBC [14] | MBC [17] | MBC [24] | MBC [25] | MBC [26] | MBC [27] | MBC [29] | MBC [36] | MBC [38] | MIC [40] | MBC [42]
